Measured values reported in article PMC2759687 (Journal of medicinal chemistry, 2009).
Square brackets hold non-standard residues; d marks the D form. Peptide text beside a SMILES is read from it. Orn = NCCC[C@H](N)C(=O)O

What was measured:
Assay in all cases: Mean activity
Type in all cases: cell-based
Gram-positive bacteria = settings: geometric mean of MIC values (after 24 h) against 7 Gram-positive strains
Gram-negative bacteria = settings: geometric mean of MIC values (after 24 h) against 7 Gram-negative strains
fungi = settings: geometric mean of MIC values (after 24 h) against 2 fungal strains

CC(C)C[C@@H]1NC(=O)[C@H](CCCN)NC(=O)[C@H](C(C)C)NC(=O)[C@@H]2CCCN2C(=O)[C@@H](Cc2ccccc2)NC(=O)[C@H](CC(C)C)NC(=O)[C@H](CCCN)NC(=O)[C@H](C(C)C)NC(=O)[C@@H]2CCCN2C(=O)[C@@H](Cc2ccccc2)NC1=O [GS, gramicidin S] (cyclo(V[Orn]L[dF]PV[Orn]L[dF]P))
Mean activity, Gram-positive bacteria (Gram-positive bacteria): 1.4 µg/mL | Mean Activity, Gram-negative bacteria (Gram-negative bacteria): 23.8 µg/mL | Mean activity, fungi (fungi): 2.8 µg/mL
